Paper PMC6220303 (EMBO Molecular Medicine, 2018)

Test system: Aβ40 in rat brain tissue
Assay: Aβ40 in rat brain and CSF after single oral dose
Format: in vivo
Method: Therefore, we measured Aβ40 in rat brain tissue 4 h after oral administration over a range of doses. […] In addition, the effect‐over‐time curves for brain and CSF almost completely superimposed, showing that Aβ pharmacodynamics in CSF mirrors very well that in brain tissue.
Experiments were carried out in accordance with the guidelines of the Swiss Federal and Cantonal veterinary offices for care and use of laboratory animals or the Canadian Council on Animal Care (Ottawa, Canada), and the ARRIVE guidelines. Studies described in this report were approved by the Swiss Cantonal Veterinary Authority of Basel City, Switzerland, and performed according to animal license numbers BS‐2063, BS‐2077, and BS‐1094. Methods employed in PK/PD studies in rats and dogs are described (Neumann et al, 2015).
Electrochemiluminescence immunoassays (Mesoscale Diagnostics, Rockville, MD, USA) were used to determine Aβ38, Aβ40, Aβ42, sAPPα, and sAPPβ. For studies in normal mice and rats, the endogenous Aβ40 was extracted from the brain homogenate with 1% Triton X‐100, and the 4G8‐based assay kit was used for quantification according to the manufacturer's instructions. CSF was collected from the cisterna magna and also analyzed using the 4G8 kit. For studies in dogs, CSF was collected via a ventricular port, and the 6E10‐based Mesoscale Diagnostics kit for Aβ was used. For studies in APP23 mice, Aβ40 and Aβ42 were determined after extraction with 70% formic acid and subsequent neutralization.

C[C@@]1(c2nc(NC(=O)c3ncc(C(F)(F)F)cc3Cl)ccc2F)CO[C@@](C)(C(F)(F)F)C(N)=N1 [CNP520]
Aβ40 reduction in rat brain and CSF (24 h after single oral 30 μmol/kg (15.4 mg/kg) dose): ~ 50% | ED50 (Rattus norvegicus, read-out: ED50, oral dose required for 50% lowering of rat brain Aβ40, 4 h after oral administration): 2.4 ± 0.31 mg/kg | reduction of Aβ40 in rat brain tissue compared to untreated controls (highest dose, 4 h after oral administration, mean ± SD): 89.3 ± 4.5%
